Assay results reported in publication PMC11982498 (Redox Biology, 2025).

How the values were obtained:
[1] = system: bio-ILPR (DNA, i motif) TGTCCCCACACCCCTGTCCCCACACCCCTGT; assay: SPR; details: K+ 100 mM; 20 mM MES, pH 5.5, 25 °C
bEnd.3 = assay: MTT cytotoxicity assay, bEnd.3; format: cell-based; details: BEND3; incubation for 48 h
[2] = system: BCL-2 gene transcription in brain of APP/PS1 mice; assay: Real-time RT-PCR of mice brain, BCL-2; format: in vivo; details: for F = 2^-∆∆Ct (relative expression fold), BCL-2: relative to WT
Protocol: Five months old male APP/PS1 mice, weighing 25–33 g, were purchased from Guangdong Medical Laboratory Animal Center and housed in the Laboratory Animal Center of Sun Yat-sen University (Guangzhou, China) for experimentation. […] The mice were housed in a specific pathogen-free environment with a controlled temperature of 22 ± 1 °C and a 12-h dark/light cycle. The mice were fed with a standard diet, and 30 mice were randomly divided into 6 groups (N = 5). […] Behavioral experiments were then conducted, and tissue specimens were collected for biochemical analysis.
^a -∆∆Ct = -[(Ct value of genes in treated sample - Ct value of genes in control) - (Ct value of β-actin in treated sample - Ct value of β-actin in control)]. ^b F: The relative expression fold.
Following sample homogenization, chloroform was added, and the solution was allowed to have phase separation into an upper aqueous layer (containing RNA), an interphase, and a lower organic layer (containing DNA and proteins). RNA was precipitated from the aqueous phase using isopropanol, while DNA was precipitated from the aqueous-organic interphase using ethanol.
Quantitative real-time polymerase chain reaction (qRT-PCR) was performed using the 2× RealStar SYBR Mixture (GenStar, Cat# A301-10, Guangzhou, China) on a LightCycler 480 II real-time PCR system (Roche, USA). Data were analyzed using the 2^−ΔΔCt method. Actin served as the internal control, and relative mRNA levels were normalized accordingly.

[3] = system: Aβ1-42 aggregation in SH-SY5Y cells; assay: Fluorescence imaging of intracellular Aβ1-42 accumulation (ThT); format: cell-based; details: 25 μM Aβ1-42; 25 μM B14, 48 h
Protocol: SH-SY5Y cells were seeded in a 96-well plate (6000 cells/well) in 100 μL medium. After the cells adhered to the wall, SH-SY5Y cells were incubated with serum-free medium containing 25 μM Aβ1-42 for 6 h to allow for the uptake of Aβ1-42 into the cells. Then solutions of B14 at different concentrations were added to the cells, with the mixtures incubated for 48 h. After being washed for three times with pre-cooled PBS, the cells were fixed with freshly prepared 4 % paraformaldehyde (Servicebio, Guangzhou, China) for 10 min at room temperature. After being washed for three times with pre-cooled PBS, the cells were incubated with ThT solution for 20 min at 25 °C in the dark. After washing for three times with pre-cooled PBS, the cells were stained with 10 μg/mL Hoechst 33342 solution (Aladdin, Shanghai, China) for 20 min at 25 °C in the dark. After washing for three times with pre-cooled PBS, the stained cells were observed and photographed with a FV3000 (Olympus, Japan) fluorescence microscope.

APP/PS1 transgenic mice = assay: Open field test (OFT); format: in vivo; details: B14 10, 20, 40 mg/kg i.p. every other day
Description: (§1) Five months old male APP/PS1 mice, weighing 25–33 g, were purchased from Guangdong Medical Laboratory Animal Center and housed in the Laboratory Animal Center of Sun Yat-sen University (Guangzhou, China) for experimentation. All procedures were approved by the Animal Care and Use Committee of Sun Yat-sen University and complied with legal requirements and national guidelines for the care and maintenance of laboratory animals (Approval No. SYSU-IACUC-2024-002032). The mice were housed in a specific pathogen-free environment with a controlled temperature of 22 ± 1 °C and a 12-h dark/light cycle. The mice were fed with a standard diet, and 30 mice were randomly divided into 6 groups (N = 5). Compound B14 was dissolved in saline and administered at doses of 10, 20, or 40 mg/kg. APP/PS1 male mice were grown until 6 months of age, and then injected intraperitoneally with compound B14 every other day for 60 days. Behavioral experiments were then conducted, and tissue specimens were collected for biochemical analysis.
The spatial memory and learning abilities of the mice were assessed using Morris water maze (MWM), novel object recognition (NOR) and nesting experiments (NBT). The anxiety and depressive behaviors were evaluated through the open field test (OFT) and elevated plus maze (EPM). Detailed experimental procedures are provided in the supplementary information. […]

[4] = system: MDA, SOD, GSH-Px, CAT in hippocampus of APP/PS1 mice; assay: Biochemical parameters analysis (oxidative stress) in hippocampus; format: in vivo
Description: as §1, with “Behavioral experiments were then conducted, and tissue specimens were collected for biochemical analysis.” left out
The hippocampi were homogenized in normal saline containing protease inhibitors. The homogenate was centrifuged at 2500 rpm for 10 min, and the protein concentration in the supernatant was measured by using the bicinchoninic acid (BCA, Beyotime, Jiangsu, China) method. The levels of malondialdehyde (MDA) and the activities of superoxide dismutase (SOD), glutathione peroxidase (GSH-Px) and […] (CAT) were determined by using relevant assay kits (Beyotime, Jiangsu, China).

Question: What does the source list for `O=C(CCN1CCOCC1)Nc1ccc2c(c1)c(=O)c1cc(NC(=O)CCN3CCOCC3)ccc1n2-c1ccc2occc2c1` [Compound B14]?
Answer: KD [1]: > 50 µM; IC50 (bEnd.3): > 100 µM; -∆∆Ct, BCL-2 ([2]; 10 mg/kg): 0.39; F = 2^-∆∆Ct (relative expression fold), BCL-2 ([2]; 10 mg/kg): 0.76; -∆∆Ct, BCL-2 ([2]; 20 mg/kg): 0.17; F = 2^-∆∆Ct (relative expression fold), BCL-2 ([2]; 20 mg/kg): 0.88; -∆∆Ct, BCL-2 ([2]; 40 mg/kg): -0.01; F = 2^-∆∆Ct (relative expression fold), BCL-2 ([2]; 40 mg/kg): 1.00; ThT fluorescence of SH-SY5Y cells (intracellular Aβ1-42 aggregation) [3]: almost completely disappeared; range and duration of activity (OFT) (APP/PS1 transgenic mice): significant improvement in the range and duration of activity; MDA level [4]: reduce the levels of lipid peroxides MDA; levels of antioxidant enzymes [4]: restore the levels of antioxidant enzymes (SOD, GSH-Px, and CAT)
